This data set relates to CCRIS mutagenicity, Ames/micronucleus/aberration tests. Kind of data set: CCRIS mutagenicity studies.
Where [1] appears, read: Test System: AMES SALMONELLA TYPHIMURIUM, Strain/Indicator: TA98, Metabolic Activation: NONE, Method: PREINCUBATION
[2] abbreviates: Test System: AMES SALMONELLA TYPHIMURIUM, Strain/Indicator: TA100, Metabolic Activation: NONE, Method: PREINCUBATION
The mark [3] stands for this setting: Test System: AMES SALMONELLA TYPHIMURIUM, Strain/Indicator: TA98, Metabolic Activation: NONE, Method: STANDARD PLATE.
The mark [4] stands for this setting: Test System: AMES SALMONELLA TYPHIMURIUM, Strain/Indicator: TA98, Metabolic Activation: S-9, Method: STANDARD PLATE.
[5] abbreviates: Test System: AMES SALMONELLA TYPHIMURIUM, Strain/Indicator: TA100, Metabolic Activation: NONE, Method: STANDARD PLATE.
Setting [6] is: Test System: AMES SALMONELLA TYPHIMURIUM, Strain/Indicator: TA100, Metabolic Activation: S-9, Method: STANDARD PLATE.

SMILES strings stand for the structures. The source made the active and inactive calls. The rule behind the calls is not given here.

For the compound `CCOc1cccc(N)c1`, the mutagenic call by setting is: (Test System: AMES SALMONELLA TYPHIMURIUM, Strain/Indicator: TA97, Metabolic Activation: HAMSTER, LIVER, S-9, AROCLOR 1254 (30%), Method: PREINCUBATION) “inactive; negative”; (Test System: AMES SALMONELLA TYPHIMURIUM, Strain/Indicator: TA98, Metabolic Activation: HAMSTER, LIVER, S-9, AROCLOR 1254 (5 OR 10%), Method: PREINCUBATION) “inactive; negative”; (Test System: AMES SALMONELLA TYPHIMURIUM, Strain/Indicator: TA98, Metabolic Activation: HAMSTER, LIVER, S-9, AROCLOR 1254 (30%), Method: PREINCUBATION) “inactive; negative”; under setting [1], “inactive; negative”; (Test System: AMES SALMONELLA TYPHIMURIUM, Strain/Indicator: TA98, Metabolic Activation: RAT, LIVER, S-9, AROCLOR 1254 (5 OR 10%), Method: PREINCUBATION) “inactive; negative”; (Test System: AMES SALMONELLA TYPHIMURIUM, Strain/Indicator: TA98, Metabolic Activation: RAT, LIVER, S-9, AROCLOR 1254 (30%), Method: PREINCUBATION) “inactive; negative”. Moreover, the mutagenic call runs as follows: (Test System: AMES SALMONELLA TYPHIMURIUM, Strain/Indicator: TA100, Metabolic Activation: HAMSTER, LIVER, S-9, AROCLOR 1254 (5, 10 OR 30%), Method: PREINCUBATION) “inactive; negative”; under setting [2], “inactive; negative”; (Test System: AMES SALMONELLA TYPHIMURIUM, Strain/Indicator: TA100, Metabolic Activation: RAT, LIVER, S-9, AROCLOR 1254 (5, 10 OR 30%), Method: PREINCUBATION) “inactive; negative”; (Test System: AMES SALMONELLA TYPHIMURIUM, Strain/Indicator: TA1535, Metabolic Activation: HAMSTER, LIVER, S-9, AROCLOR 1254 (5, 10 OR 30%), Method: PREINCUBATION) “inactive; negative”; (Test System: AMES SALMONELLA TYPHIMURIUM, Strain/Indicator: TA1535, Metabolic Activation: RAT, LIVER, S-9, AROCLOR 1254 (5, 10 OR 30%), Method: PREINCUBATION) “inactive; negative”.
Consider `CC(C)(C)c1ccc(-c2ccc(N=O)cc2)cc1`, for which the mutagenic call by setting is: under setting [3], “active; positive”; under setting [4], “active; positive”; under setting [5], “active; positive”; under setting [6], “active; positive”.
As for `C=C1C/C(=C/C)C(=O)O[C@@H]2CCN3CC=C(COC(=O)[C@]1(C)O)[C@H]23`, the mutagenic call is, setting by setting: (Test System: AMES SALMONELLA TYPHIMURIUM, Strain/Indicator: TA97, Metabolic Activation: HAMSTER, LIVER, S-9, AROCLOR 1254 (5, 10 OR 30%), Method: PREINCUBATION) “inactive; negative”; (Test System: AMES SALMONELLA TYPHIMURIUM, Strain/Indicator: TA97, Metabolic Activation: NONE, Method: PREINCUBATION) “inactive; negative”; (Test System: AMES SALMONELLA TYPHIMURIUM, Strain/Indicator: TA97, Metabolic Activation: RAT, LIVER, S-9, AROCLOR 1254 (5, 10 OR 30%), Method: PREINCUBATION) “inactive; negative”; (Test System: AMES SALMONELLA TYPHIMURIUM, Strain/Indicator: TA98, Metabolic Activation: HAMSTER, LIVER, S-9, AROCLOR 1254 (10%), Method: PREINCUBATION) “inactive; negative”; under setting [1], “inactive; negative”; (Test System: AMES SALMONELLA TYPHIMURIUM, Strain/Indicator: TA98, Metabolic Activation: RAT, LIVER, S-9, AROCLOR 1254 (10%), Method: PREINCUBATION) “inactive; negative”. In addition, the mutagenic call by setting is: (Test System: AMES SALMONELLA TYPHIMURIUM, Strain/Indicator: TA100, Metabolic Activation: HAMSTER, LIVER, S-9, AROCLOR 1254 (5%), Method: PREINCUBATION) “inactive; negative”; (Test System: AMES SALMONELLA TYPHIMURIUM, Strain/Indicator: TA100, Metabolic Activation: HAMSTER, LIVER, S-9, AROCLOR 1254 (10 OR 30%), Method: PREINCUBATION) “active; positive”; (Test System: AMES SALMONELLA TYPHIMURIUM, Strain/Indicator: TA100, Metabolic Activation: HAMSTER, LIVER, S-9, PCB, Method: PREINCUBATION) “inactive; negative”; under setting [2], “inactive; negative”; (Test System: AMES SALMONELLA TYPHIMURIUM, Strain/Indicator: TA100, Metabolic Activation: RAT, LIVER, S-9, AROCLOR 1254 (5 OR 30%), Method: PREINCUBATION) “inactive; negative”; (Test System: AMES SALMONELLA TYPHIMURIUM, Strain/Indicator: TA100, Metabolic Activation: RAT, LIVER, S-9, AROCLOR 1254 (10%), Method: PREINCUBATION) “inactive; negative”. The mutagenic call was “inactive; negative” (Test System: AMES SALMONELLA TYPHIMURIUM, Strain/Indicator: TA100, Metabolic Activation: RAT, LIVER, S-9, PCB, Method: PREINCUBATION); “inactive; negative” (Test System: AMES SALMONELLA TYPHIMURIUM, Strain/Indicator: TA100, Metabolic Activation: RAT, LIVER, S-9, SODIUM PHENOBARBITAL AND BETA-NAPHTHOFLAVONE, Method: PREINCUBATION); “inactive; negative” (Test System: AMES SALMONELLA TYPHIMURIUM, Strain/Indicator: TA1535, Metabolic Activation: HAMSTER, LIVER, S-9, AROCLOR 1254 (10%), Method: PREINCUBATION); “inactive; negative” (Test System: AMES SALMONELLA TYPHIMURIUM, Strain/Indicator: TA1535, Metabolic Activation: NONE, Method: PREINCUBATION); “inactive; negative” (Test System: AMES SALMONELLA TYPHIMURIUM, Strain/Indicator: TA1535, Metabolic Activation: RAT, LIVER, S-9, AROCLOR 1254 (10%), Method: PREINCUBATION); “active; positive” (Test System: UDS HAMSTER HEPATOCYTES, Strain/Indicator: THY INCORP, Metabolic Activation: NONE, Method: AUTORADIOGRAPHY). In addition, the mutagenic call is, setting by setting: (Test System: UDS MOUSE HEPATOCYTES, Strain/Indicator: THY INCORP, Metabolic Activation: NONE, Method: AUTORADIOGRAPHY) “active; positive”; (Test System: UDS RAT HEPATOCYTES, Strain/Indicator: THY INCORP, Metabolic Activation: NONE, Method: AUTORADIOGRAPHY) “active; positive”.
Consider `COc1ccc(/C=C/c2ccc([N+](=O)[O-])cc2)cc1`, for which the mutagenic call is “inactive; negative” (Test System: AMES SALMONELLA TYPHIMURIUM, Strain/Indicator: TA98(NR), Metabolic Activation: NONE, Method: STANDARD PLATE); “active; positive” (Test System: AMES SALMONELLA TYPHIMURIUM, Strain/Indicator: TA98 (NR), Metabolic Activation: S-9, Method: STANDARD PLATE); “active; positive” under setting [3]; “active; positive” under setting [4]; “inactive; negative” (Test System: AMES SALMONELLA TYPHIMURIUM, Strain/Indicator: TA100 (NR), Metabolic Activation: NONE, Method: STANDARD PLATE); “inactive; negative” (Test System: AMES SALMONELLA TYPHIMURIUM, Strain/Indicator: TA100 (NR), Metabolic Activation: S-9, Method: STANDARD PLATE). Besides, the mutagenic call under setting [5] is “active; positive” and the mutagenic call under setting [6] was “active; positive”.
On to `CNCC(O)c1ccc(O)c(O)c1` (configuration not stated), for which the mutagenic call runs as follows: (Test System: AMES SALMONELLA TYPHIMURIUM, Strain/Indicator: TA102, Metabolic Activation: NONE, Method: STANDARD PLATE) “inactive; negative”; (Test System: AMES SALMONELLA TYPHIMURIUM, Strain/Indicator: TA2638, Metabolic Activation: NONE, Method: STANDARD PLATE) “inactive; negative”; (Test System: E. COLI, Strain/Indicator: WP2 (PKM101), Metabolic Activation: NONE, Method: STANDARD PLATE) “inactive; negative”; (Test System: E. COLI, Strain/Indicator: WP2 UVRA (PKM101), Metabolic Activation: NONE, Method: STANDARD PLATE) “inactive; negative”.

The values above are taken from PubChem BioAssay AID1259407 (Chemical Carcinogenesis Research Information System (CCRIS), 2018).
